In PubChem BioAssay AID652214 (Broad Institute, 2013):
Active and inactive are the calls of the source.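 The calls were made as follows: active = AC50 of 30 µM or below; inactive = AC50 above 30 µM.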

Each compound was assayed against Thioredoxin (Homo sapiens) (UniProt P10599) (assay: TRX disulfide reduction blockade – biochemical, insulin turbidity, dry powder samples, counter-screen for PDI inhibitor project, dose response (AID 652214)). Details: purified thioredoxin, insulin reduction turbidity OD650.
Chain of Thioredoxin (Homo sapiens) (P10599 whole entry, looked up): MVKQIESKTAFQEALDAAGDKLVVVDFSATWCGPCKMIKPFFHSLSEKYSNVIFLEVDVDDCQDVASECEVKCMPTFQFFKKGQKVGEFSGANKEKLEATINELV

Row | SMILES | AC50
1 | O=C(Nc1ccccc1)C1(CCOc2ccccc2)CCN(Cc2ccc(O)c(Cl)c2)CC1 | > 30 µM (inactive)
2 | CCOC(=O)c1c(CN2CCN(CCO)CC2)n(-c2ccccc2)c2cc(Br)c(O)cc12 | > 30 µM (inactive)
3 | O=C(NC1CCCC1)C1(CCOc2ccccc2)CCN(Cc2ccc(O)c(Cl)c2)CC1 | > 30 µM (inactive)
4 | C/C1=C\C[C@H](OC(=O)c2ccc(O)cc2)/C(C)=C/[C@@H](O)C(C)(C)CCC1 | > 30 µM (inactive)
5 | CCOC(=O)C1(CCOc2ccccc2)CCN(Cc2ccc(OC)c(Cl)c2)CC1 | > 30 µM (inactive)
6 | CCN(C)C(=O)C1(CCOc2ccccc2)CCN(Cc2ccc(O)c(Cl)c2)CC1 | > 30 µM (inactive)
7 | CCOC(=O)C1(CCOc2ccccc2)CCN(Cc2ccc(O)cc2)CC1 | > 30 µM (inactive)
8 | CCOC(=O)C1(CCOc2ccccc2)CCN(Cc2ccc(O)c(Cl)c2)CC1 | > 30 µM (inactive)
9 | C/C1=C\[C@@H](O)C(C)(C)CCCC2(C)OC2C[C@@H]1OC(=O)c1ccc(O)cc1 (some centres not stated) | 3 µM
10 | CC(C)OC(=O)C1(CCOc2ccccc2)CCN(Cc2ccc(O)c(Cl)c2)CC1 | > 30 µM (inactive)
11 | CC(C)(C)OC(=O)C1(CCOc2ccccc2)CCN(Cc2ccc(O)c(Cl)c2)CC1 | > 30 µM (inactive)
12 | CCOC(=O)C1(CCOc2ccccc2)CCN(C(=O)c2ccc(O)c(Cl)c2)CC1 | > 30 µM (inactive)
